Measured values reported in publication PMC6836573, “Mitochondria-targeting fluorescent molecules for high efficiency cancer growth inhibition and imaging” (Chemical Science, 2019).

How the values were obtained:
[1] = tested on: bladder cancer T24 cell; experiment: Cytotoxicity assay (direct cell counting), T24; assay type: cell-based
Experimental: (§1) Cell culture, imaging, and cytotoxicity assay
(§2) RPMI-1640 medium. NIH/3T3 was cultured in DMEM medium. A549 was cultured in F-12K medium. T24 were cultured in McCoy's 5A medium. All culture mediums were supplemented with 10% fetal bovine serum. The cells were incubated at 37 °C in an atmosphere containing 5% CO 2. […]
(§3) Cytotoxicity assay. All test cell lines were incubated in 96-well plates overnight at a density of 3000 cells/well. The culture medium was replaced with 200 μL of culture medium, into which the testing compound was dispersed at various concentrations (1.95 - 500 μM). After incubating for 3 days, the viable cell numbers were checked and directly counted under microscopy (10X). A minimum of 1mm×1mm area was counted from each of at least three widely separated regions of cell culture. The cell proliferation rate was calculated by the following formula: cell proliferation rate (%) = (average cell number of sample wells / average cell number of control wells) ×100%.
(§4) The intact culture medium was evaluated as a control. […]

[2] = tested on: NSCLC H838 cell; experiment: Cytotoxicity assay (direct cell counting), H838; assay type: cell-based; conditions: Homo sapiens, NCI-H838, 72 h, H838 cells; 3 days incubation, viable cells counted
Experimental: as §1, §2, §3, §4
(§5) All animal experiments were performed in compliance with the Guidelines for the Care and Use of Research Animals as established by the Stanford University Animal Studies Committee. Female athymic nude mice (nu/nu) from 4−6 weeks old were obtained from Charles River Laboratories (Boston, MA, USA) and kept under sterile conditions. 5 × 106 human lung adenocarcinoma

[3] = Cytotoxicity assay (direct cell counting), NIH-3T3; assay type: cell-based; conditions: mouse; NIH-3T3 normal cells; 3 days incubation, viable cells counted
Experimental: as §1, §2, §3, §4

[4] = tested on: HCC4006 NSCLC cell line; experiment: Cytotoxicity assay, HCC4006; assay type: cell-based; conditions: Homo sapiens; HCC4006 cells
Experimental: as §1, §2, §3, §4, §5

[5] = tested on: HCC827 NSCLC cell line; experiment: Cytotoxicity assay, HCC827; assay type: cell-based; conditions: Homo sapiens; HCC827 cells
Experimental: as §1, §2, §3, §4

[6] = tested on: H1693 NSCLC cell line; experiment: Cytotoxicity assay, H1693; assay type: cell-based; conditions: Homo sapiens, NCI-H1693; H1693 cells
Experimental: as §1, §2, §3, §4

[7] = tested on: H2030 NSCLC cell line; experiment: Cytotoxicity assay, H2030; assay type: cell-based; conditions: Homo sapiens, NCI-H2030; H2030 cells
Experimental: as §1, §2, §3, §4

[8] = tested on: H2228 NSCLC cell line; experiment: Cytotoxicity assay, H2228; assay type: cell-based; conditions: Homo sapiens, NCI-H2228, H2228 cells
Experimental: as §1, §2, §3, §4, §5

[9] = tested on: A549 NSCLC cell line; experiment: Cytotoxicity assay, A549; assay type: cell-based; conditions: Homo sapiens; A549 cells
Experimental: as §1, §2, §3, §4

[10] = tested on: H1437 NSCLC cell line; experiment: Cytotoxicity assay, H1437; assay type: cell-based; conditions: Homo sapiens, NCI-H1437; H1437 cells
Experimental: as §1, §2, §3, §4

[11] = tested on: H1944 NSCLC cell line; experiment: Cytotoxicity assay, H1944; assay type: cell-based; conditions: Homo sapiens, NCI-H1944; H1944 cells
Experimental: as §1, §2, §3, §4

[12] = tested on: subcutaneous HCC827 tumor; experiment: In vivo and ex vivo fluorescence imaging of HCC827 tumor-bearing mice; parameters: species or system nude mice
Experimental: HCC827 cells suspended in 150 µL of PBS were inoculated subcutaneously in the right shoulder […]
When the tumors reached ~3 mm in diameter, the tumor-bearing mice were administered i.v. with 5BMF (dissolved in 150 µL PBS, with 2 µL DMSO) at 15 mg/Kg on days 1, 3, 5, 7, 9, 11, 13, 15, 17, 19, 21. Correspondingly, untreated tumor-bearing mice serving as controls were administered i.v. with 150 µL 1× PBS pH 7.4 (with 2 µL DMSO) on the same days as the treated mice. Ten mice were used for each group. Length and width of the elliptical tumors were measured by Vernier caliper after every intravenous injection. Modified ellipsoid formula ½ (Length × Width2) was used to calculate the tumor size. The tumor growth was calculated with the ratio of final volume (FV) minus initial volume (IV) to initial volume (IV).
In vivo fluorescent imaging was taken 40 minutes and 2 hours after the injection of 5BMF 15 mg/kg. IVIS spectrum instrument was used. The excitation wavelength was set at 450 nm.
Collection wavelength was set at 550 nm, using a 3s acquisition time. 4 mice for each group were used. Mice were sacrificed and the organs were harvest after each set of in vivo imaging.
Fluorescent images of the organs were taken under the same settings.
The tumor tissues and some important organs such as liver, kidney, lung, heart were isolated. After frozen, the specimens sectioned at 5-8 µm and processed for a standard hematoxylin-eosin (H&E) staining. Slides were viewed and photographed with the Nanozoomer Digital Pathology Image […]
The body weights of mice are presented as means ± standard deviation (SD) of n independent measurements. The tumor volumes are presented as means ± standard error of mean (SEM) of n independent measurements. Statistical analysis was performed using a Student’s t-test or Mann-Whitney U test. Statistical significance was assigned for P values <0.05.
Detail F16s Synthesis information

[13] = pH stability (integrated fluorescence intensity); assay type: physicochemical; conditions: pH 3.0–10.0 buffers, 24 h, 10 µM
Experimental: with 10 µM concentration). pH 3.0~7.0 buffers are sodium hydrogen phosphate and trisodium buffer; pH 7.4~10.0 buffers are phosphate buffered saline. 5BMF was put into different pH buffer with the concentration of 10 µM. 5BMF solutions were taking out at 1, 2, 3, 4, 5, 6, 7, 8, 16, 24 h time point. And their integrated fluorescent intensity (from 450 nm to 650 nm) were measured (excited at 425 nm). All data were analyzed using Origin Pro 9.0 software (OriginLab, Northampton, Massachusetts, USA).
(1 picture or pasted object on this page, not shown here)

[14] = Self-assembly into nanoparticles (TEM, DLS); assay type: physicochemical; conditions: 1× pH 7.4 PBS, 5 mM to 0.125 mM
[15] = Relative fluorescence quantum yield; assay type: physicochemical; conditions: EtOH, relative to rhodamine 6G, excited at 425 nm
Experimental: Quantum yield. The fluorescence quantum yields of F16s were determined according to the […]
Where Φ is the quantum yield, F is the integrated area under the corrected emission spectrum, and A is the absorbance at the excitation wavelength; the subscripts x and s refer to F16s and the standard, respectively. Rhodamine 6G (ΦF = 95%) in ethanol was used as the standard. All F16s and Rhodamine 6G were dissolved in ethanol in 5 different concentrations with the absorbance lower than 0.1 at 425nm. The corresponding 5 different fluorescences of F16s and Rhodamine 6G were excited at 425 nm and the emission spectra from 450 nm to 650 nm were obtained for the following integrated area measurement. All data were analyzed using Origin Pro 9.0 software (OriginLab, Northampton, Massachusetts, USA) to get the F16s final quantum yield. […]

## Cc1cc(Br)cc2c(/C=C/c3cc[n+](C)cc3)c[nH]c12 [5BMF]
[1]; 3T3 versus T24 and H838
  selectivity indices: > 10
[1]; Homo sapiens, T-24, 72 h, T24 cells, 3 days incubation, viable cells counted
  IC50: 820 nM
[2]
  IC50: 360 nM
[3]
  IC50 at 3 days: 11000 nM
[4]
  IC50: 106 nM
[5]
  IC50: 1990 nM
[6]
  IC50: 1180 nM
[7]
  IC50: 102 nM
[8]
  IC50: ~50 nM
[9]
  IC50: 727 nM
[10]
  IC50: 1430 nM
[11]
  IC50: 261 nM
[12]; ex vivo imaging at 40 min and 2 h PI
  accumulation in tumor, kidney, bone, stomach, bowel, pancreas and skin: accumulated more 5BMF compared with the liver, spleen, heart, lung, and brain
[12]; ex vivo imaging, 2 h PI, 15 mg/kg
  tumor/lung ratio: ~7
[12]; in vivo fluorescence, 2 h post IV injection, 15 mg/kg
  tumor to background ratio: ~2
[13]
  decay in buffers of different pH: less than 20%
[14]
  size of self-assembled nanoparticles: ~120 nm
[15]
  Quantum Yield: 19.7%
[15]; listed as 3
  Quantum Yield: around 20%
